Results as given in ChEMBL document CHEMBL4270599, “Synthesis of a 3'-C-ethynyl-β-d-ribofuranose purine nucleoside library: Discovery of C7-deazapurine analogs as potent antiproliferative nucleosides” (Eur J Med Chem, 2018).

Columns and labels:
Format in all cases: functional
[1] = tested on: COLO 205; test: Cytotoxicity against human COLO205 cells after 48 hrs by SRB assay; conditions: COLO 205, 48 h
[2] = tested on: MDA-MB-468; test: Growth inhibition of human MDA-MB-468 cells assessed as cell growth at 10^-8 M incubated for 48 hrs by sulforhodamine B assay relative to control; conditions: MDA-MB-468, 48 h, read-out: Activity
[3] = tested on: SN12C; test: Growth inhibition of human SN12C cells assessed as cell growth at 10^-4 M incubated for 48 hrs by sulforhodamine B assay relative to control; conditions: read-out: Activity
[4] = tested on: SF-295; test: Growth inhibition of human SF295 cells assessed as cell growth at 10^-8 M incubated for 48 hrs by sulforhodamine B assay relative to control; conditions: SF-295, 48 h, read-out: Activity
[5] = tested on: HT-29; test: Cytotoxicity against human HT-29 cells after 48 hrs by SRB assay; conditions: HT-29, 48 h
[6] = tested on: CCRF-CEM; test: Cytotoxicity against human CCRF-CEM cells after 48 hrs by SRB assay
[7] = tested on: HCT-15; test: Cytotoxicity against human HCT15 cells after 48 hrs by SRB assay; conditions: HCT-15, 48 h
[8] = tested on: CCRF-CEM; test: Growth inhibition of human CCRF-CEM cells assessed as cell growth at 10^-8 M incubated for 48 hrs by sulforhodamine B assay relative to control; conditions: read-out: Activity
[9] = tested on: Malme-3M; test: Growth inhibition of human MALME-3M cells assessed as cell growth at 10^-7 M incubated for 48 hrs by sulforhodamine B assay relative to control; conditions: read-out: Activity
[10] = tested on: BT-549; test: Cytotoxicity against human BT549 cells after 48 hrs by SRB assay; conditions: BT-549, 48 h
[11] = tested on: 786-0; test: Growth inhibition of human 786-0 cells assessed as cell growth at 10^-8 M incubated for 48 hrs by sulforhodamine B assay relative to control; conditions: 786-0, 48 h, read-out: Activity
[12] = tested on: PC-3; test: Cytotoxicity against human PC3 cells after 48 hrs by SRB assay; conditions: PC-3, 48 h
[13] = tested on: HCT-15; test: Growth inhibition of human HCT15 cells assessed as cell growth at 10^-7 M incubated for 48 hrs by sulforhodamine B assay relative to control; conditions: HCT-15, 48 h, read-out: Activity
[14] = tested on: SNB-75; test: Growth inhibition of human SNB75 cells assessed as cell growth at 10^-6 M incubated for 48 hrs by sulforhodamine B assay relative to control; conditions: SNB-75, 48 h, read-out: Activity
[15] = tested on: Hs-578T; test: Cytotoxicity against human Hs 578T cells after 48 hrs by SRB assay
[16] = tested on: ACHN; test: Growth inhibition of human ACHN cells assessed as cell growth at 10^-5 M incubated for 48 hrs by sulforhodamine B assay relative to control; conditions: read-out: Activity
[17] = tested on: PC-3; test: Growth inhibition of human PC3 cells assessed as cell growth at 10^-5 M incubated for 48 hrs by sulforhodamine B assay relative to control; conditions: PC-3, 48 h, read-out: Activity
[18] = tested on: UACC-62; test: Growth inhibition of human UACC62 cells assessed as cell growth at 10^-6 M incubated for 48 hrs by sulforhodamine B assay relative to control; conditions: UACC-62, 48 h, read-out: Activity
[19] = tested on: M14; test: Growth inhibition of human M14 cells assessed as cell growth at 10^-5 M incubated for 48 hrs by sulforhodamine B assay relative to control; conditions: M14, 48 h, read-out: Activity
[20] = tested on: DU-145; test: Growth inhibition of human DU145 cells assessed as cell growth at 10^-5 M incubated for 48 hrs by sulforhodamine B assay relative to control; conditions: DU-145, 48 h, read-out: Activity
[21] = tested on: SK-OV-3; test: Growth inhibition of human SKOV3 cells assessed as cell growth at 10^-4 M incubated for 48 hrs by sulforhodamine B assay relative to control; conditions: SK-OV-3, 48 h, read-out: Activity
[22] = tested on: BT-549; test: Growth inhibition of human BT549 cells assessed as cell growth at 10^-8 M incubated for 48 hrs by sulforhodamine B assay relative to control; conditions: BT-549, 48 h, read-out: Activity
[23] = tested on: COLO 205; test: Growth inhibition of human COLO205 cells assessed as cell growth at 10^-8 M incubated for 48 hrs by sulforhodamine B assay relative to control; conditions: COLO 205, 48 h, read-out: Activity
[24] = tested on: MCF7; test: Growth inhibition of human MCF7 cells assessed as cell growth at 10^-6 M incubated for 48 hrs by sulforhodamine B assay relative to control; conditions: MCF7, 48 h, read-out: Activity
[25] = tested on: OVCAR-5; test: Growth inhibition of human OVCAR5 cells assessed as cell growth at 10^-7 M incubated for 48 hrs by sulforhodamine B assay relative to control; conditions: OVCAR-5, 48 h, read-out: Activity
[26] = tested on: RXF 393; test: Growth inhibition of human RXF393 cells assessed as cell growth at 10^-7 M incubated for 48 hrs by sulforhodamine B assay relative to control; conditions: RXF 393, 48 h, read-out: Activity
[27] = tested on: BT-549; test: Growth inhibition of human BT549 cells assessed as cell growth at 10^-5 M incubated for 48 hrs by sulforhodamine B assay relative to control; conditions: BT-549, 48 h, read-out: Activity
[28] = tested on: OVCAR-8; test: Cytotoxicity against human OVCAR8 cells after 48 hrs by SRB assay; conditions: OVCAR-8, 48 h
[29] = tested on: NCI-H460; test: Growth inhibition of human NCI-H460 cells assessed as cell growth at 10^-6 M incubated for 48 hrs by sulforhodamine B assay relative to control; conditions: NCI-H460, 48 h, read-out: Activity
[30] = tested on: MDA-MB-468; test: Growth inhibition of human MDA-MB-468 cells assessed as cell growth at 10^-7 M incubated for 48 hrs by sulforhodamine B assay relative to control; conditions: MDA-MB-468, 48 h, read-out: Activity
[31] = tested on: MCF7; test: Growth inhibition of human MCF7 cells assessed as cell growth at 10^-8 M incubated for 48 hrs by sulforhodamine B assay relative to control; conditions: MCF7, 48 h, read-out: Activity
[32] = tested on: PC-3; test: Growth inhibition of human PC3 cells assessed as cell growth at 10^-6 M incubated for 48 hrs by sulforhodamine B assay relative to control; conditions: PC-3, 48 h, read-out: Activity
[33] = read-out: pLC50 (the source's name) (converted)
[34] = read-out: LC50 (the source's name)

SMILES: C#C[C@@]1(O)[C@@H](CO)O[C@@H](n2cc(F)c3c(N)ncnc32)[C@@H]1O
- GI50 ([1]; read-out: GI50): 0.263 µM
- TGI ([1]; read-out: TGI): 1.3 µM
- GI50 ([1]; read-out: pGI50 (converted)): 0.263 µM
- CC50 [1, 33]: 9.33 µM
- TGI ([1]; read-out: pTGI (converted)): 1.29 µM
- growth at 0.01 µM [2]: 92%
- growth at 100 µM [3]: -24%
- growth at 0.01 µM [4]: 98%
- TGI ([5]; read-out: TGI): > 100 µM
- GI50 ([5]; read-out: pGI50 (converted)): 0.209 µM
- CC50 [5, 33]: > 100 µM
- TGI ([5]; read-out: pTGI (converted)): > 100 µM
- TGI ([6]; read-out: TGI): > 100 µM
- GI50 ([6]; read-out: pGI50 (converted)): 0.339 µM
- CC50 [6, 33]: > 100 µM
- TGI ([6]; read-out: pTGI): > 100 µM
- TGI ([7]; read-out: TGI): 3.19 µM
- GI50 ([7]; read-out: pGI50 (converted)): 0.295 µM
- CC50 [7, 33]: > 100 µM
- TGI ([7]; read-out: pTGI (converted)): 3.16 µM
- growth at 0.01 µM [8]: 95%
- growth at 0.1 µM [9]: 98%
- CC50 [10, 34]: > 100 µM
- TGI ([10]; read-out: TGI): 4.18 µM
- GI50 ([10]; read-out: pGI50 (converted)): 0.851 µM
- TGI ([10]; read-out: pTGI (converted)): 4.17 µM
- growth at 0.01 µM [11]: 94%
- CC50 [12, 34]: > 100 µM
- TGI ([12]; read-out: TGI): 3.24 µM
- GI50 ([12]; read-out: pGI50 (converted)): 0.295 µM
- TGI ([12]; read-out: pTGI (converted)): 3.24 µM
- growth at 0.1 µM [13]: 79%
- growth at 1 µM [14]: 52%
- CC50 [15, 34]: > 100 µM
- TGI ([15]; read-out: TGI): > 100 µM
- GI50 ([15]; read-out: pGI50 (converted)): 3.98 µM
- TGI ([15]; read-out: pTGI): > 100 µM
- growth at 10 µM [16]: 2%
- growth at 10 µM [17]: -10%
- growth at 1 µM [18]: 12%
- growth at 10 µM [19]: -48%
- growth at 10 µM [20]: 1%
- growth at 100 µM [21]: -30%
- growth at 0.01 µM [22]: 98%
- growth at 0.01 µM [23]: 101%
- growth at 1 µM [24]: -8%
- growth at 0.1 µM [25]: 108%
- growth at 0.1 µM [26]: 102%
- growth at 10 µM [27]: -28%
- TGI ([28]; read-out: TGI): 3.69 µM
- GI50 ([28]; read-out: pGI50 (converted)): 0.257 µM
- CC50 [28, 33]: > 100 µM
- TGI ([28]; read-out: pTGI (converted)): 3.72 µM
- growth at 1 µM [29]: 5%
- growth at 0.1 µM [30]: 84%
- growth at 0.01 µM [31]: 89%
- growth at 1 µM [32]: 11%
